Experimental data: patent publication EP0934303B1, “COMPOUNDS USEFUL FOR INHIBITION OF FARNESYL PROTEIN TRANSFERASE” (SCHERING CORPORATION, priority 1996, dated 1998)
Read-outs that look alike come from different tables or passages of the source.

How the values were obtained:
Human tumor cells = assay: Soft Agar Assay (anchorage-independent growth, colony count after MTT staining); type: cell-based; conditions: one range stated for the whole list of compounds
Procedure: Anchorage-independent growth is a characteristic of tumorigenic cell lines. Human tumor cells are suspended in growth medium containing 0.3% agarose and an indicated concentration of a farnesyl transferase inhibitor. The solution is overlayed onto growth medium solidified with 0.6% agarose containing the same concentration of farnesyl transferase inhibitor as the top layer. After the top layer is solidified, plates are incubated for 10-16 days at 37°C under 5% CO2 to allow colony outgrowth. After incubation, the colonies are stained by overlaying the agar with a solution of MTT (3-[4,5-dimethylthiazol-2-yl]-2,5-diphenyltetrazolium bromide, Thiazolyl blue) (1 mg/mL in PBS). Colonies can be counted and the IC50's can be determined.

COS Cell = COS Cell IC50 (Cell-Based Assay, procedure of WO 95/10516); conditions: one range stated for the whole list of compounds
Procedure: (§1) FPT IC50 (inhibition of farnesyl protein transferase, in vitro enzyme assay), GGPT IC50 (inhibition of geranylgeranyl protein transferase, in vitro enzyme assay) and COS Cell IC50 (Cell-Based Assay) were determined following the assay procedures described in WO 95/10516, published April 20, 1995. Cell Mat Assay, and anti-tumor activity (in vivo anti-tumor studies) could be determined by the assay procedures described in WO 95/10516. The disclosure of WO 95/10516 is incorporated herein by reference thereto.

[1] = biological target: farnesyl protein transferase (Homo sapiens, UniProt P49354+P49356); assay: FPT IC50, inhibition of farnesyl protein transferase, in vitro enzyme assay (procedure of WO 95/10516); type: biochemical; conditions: one range stated for the whole list of compounds
Chain of farnesyl protein transferase (P49356 whole entry, one chain of several): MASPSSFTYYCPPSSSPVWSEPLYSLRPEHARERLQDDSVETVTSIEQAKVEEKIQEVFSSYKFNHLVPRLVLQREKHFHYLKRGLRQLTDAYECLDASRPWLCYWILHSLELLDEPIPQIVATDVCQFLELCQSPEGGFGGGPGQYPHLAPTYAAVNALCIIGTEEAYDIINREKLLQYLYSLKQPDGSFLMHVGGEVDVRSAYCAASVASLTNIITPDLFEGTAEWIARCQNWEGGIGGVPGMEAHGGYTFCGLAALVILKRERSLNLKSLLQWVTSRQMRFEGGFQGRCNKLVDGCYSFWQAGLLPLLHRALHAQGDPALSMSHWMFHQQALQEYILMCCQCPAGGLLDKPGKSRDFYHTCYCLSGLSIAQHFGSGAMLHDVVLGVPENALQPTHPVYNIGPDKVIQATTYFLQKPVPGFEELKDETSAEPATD
Procedure: as §1

[2] = biological target: geranylgeranyl protein transferase (Rattus norvegicus, UniProt P53610+Q04631); assay: GGPT IC50, inhibition of geranylgeranyl protein transferase, in vitro enzyme assay (procedure of WO 95/10516); type: biochemical
Procedure: as §1

[3] = H-ras, read-out: FPT IC50 (H-ras)
[4] = K-ras, read-out: FPT IC50 (K-ras)

`CC(=O)OC1CCC(C(=O)N2CCC(CC(=O)N3CCC(C4c5ncc(Br)cc5CCc5cc(Cl)cc(Br)c54)CC3)CC2)CC1` (stereo not drawn) [Compound 66.0-B] showed an IC50 (Human tumor cells) of no less than 90 nM and an IC50 (COS Cell) of no less than 7 nM.

Molecule `N#CN1CCC(CC(=O)N2CCC([C@H]3c4ncc(Br)cc4CCc4cc(Cl)cc(Br)c43)CC2)CC1` [Compound 29.0] has an IC50 [1, 3] of no less than 0.8 nM and an IC50 (COS Cell) of no less than 12 nM.

With `O=C(CC1CCN(C(=O)N2CCOCC2)CC1)N1CCC([C@H]2c3ncc(Br)cc3CCc3cc(Cl)cc(Br)c32)CC1` [Compound 100.0-B] the IC50 (Human tumor cells) was no less than 90 nM and the IC50 (COS Cell) was no less than 7 nM.

`O=C(CC1CCN(C(=O)[C@@H]2CSCN2)CC1)N1CCC([C@H]2c3ncc(Br)cc3CCc3cc(Cl)cc(Br)c32)CC1` [Compound 80.0-B] gave an IC50 (Human tumor cells) of no less than 90 nM.

For `O=C(CC1CCN(C(=O)c2cccnc2O)CC1)N1CCC([C@H]2c3ncc(Br)cc3CCc3cc(Cl)cc(Br)c32)CC1` [Compound 48.0-B], the IC50 (Human tumor cells) was no less than 90 nM and the IC50 (COS Cell) was no less than 7 nM.

`N=C(NS(N)(=O)=O)N1CCC(CC(=O)N2CCN(C3c4ccc(Cl)cc4CCc4cc(Br)cnc43)CC2)CC1` (stereo not drawn) [Compound 7.0, 4-[2-[4-(3-BROMO-8-CHLORO-6,11-DIHYDRO-5H-BENZO[5,6]CYCLOHEPTA[1,2-b]PYRIDIN-11-YL)-1-PIPERAZINYL]-2-OXOETHYL]-N-SULFAMOYL-1-PIPERIDINE-CARBOXIMIDAMIDE] was tested, and the IC50 [1, 3] was no less than 0.8 nM.

Molecule `O=C1N[C@H](C(=O)N2CCC(CC(=O)N3CCC([C@H]4c5ncc(Br)cc5CCc5cc(Cl)cc(Br)c54)CC3)CC2)CO1` [Compound 28.0-B] has an IC50 (Human tumor cells) of no less than 90 nM and an IC50 (COS Cell) of no less than 7 nM.

`N#CN1CCC(CC(=O)N2CCN(C3c4ccc(Cl)cc4CCc4cc(Br)cnc43)CC2)CC1` (stereo not drawn) [Compound 5.0] was tested, and the IC50 [1, 3] was no less than 0.8 nM.

Molecule `O=C(CC1CCN(C(=O)c2cn[nH]c2)CC1)N1CCC([C@H]2c3ncc(Br)cc3CCc3cc(Cl)cc(Br)c32)CC1` [Compound 31.0-B] has an IC50 (Human tumor cells) of no less than 90 nM and an IC50 (COS Cell) of no less than 7 nM.

With `CCn1cccc1C(=O)N1CCC(CC(=O)N2CCC([C@H]3c4ncc(Br)cc4CCc4cc(Cl)cc(Br)c43)CC2)CC1` [Compound 40.0-B] the IC50 (Human tumor cells) was no less than 90 nM, the IC50 [1, 3] was no less than 0.8 nM and the IC50 (COS Cell) was no less than 7 nM.

Molecule `O=C(CC1CCN(C(=O)c2ncccc2O)CC1)N1CCC([C@H]2c3ncc(Br)cc3CCc3cc(Cl)cc(Br)c32)CC1` [Compound 83.0-B] has an IC50 (Human tumor cells) of no less than 90 nM and an IC50 (COS Cell) of no less than 7 nM.

`O=C(CC1CCN(C(=O)c2ccc[n+]([O-])c2)CC1)N1CCC([C@H]2c3ncc(Br)cc3CCc3cc(Cl)cc(Br)c32)CC1` [Compound 46.0-B] showed an IC50 (Human tumor cells) of no less than 90 nM and an IC50 (COS Cell) of no less than 7 nM.

`N=C(Oc1ccccc1)N1CCC(CC(=O)N2CCC([C@H]3c4ncc(Br)cc4CCc4cc(Cl)cc(Br)c43)CC2)CC1` [Compound 27.0] gave an IC50 (Human tumor cells) of no less than 90 nM, an IC50 [1, 3] of no less than 0.8 nM and an IC50 [1, 4] of 16 to 782 nM. It also gave an IC50 (COS Cell) of no less than 12 nM.

`Cc1noc(C)c1C(=O)N1CCC(CC(=O)N2CCC([C@H]3c4ncc(Br)cc4CCc4cc(Cl)cc(Br)c43)CC2)CC1` [Compound 27.0-B] was tested, and the IC50 (Human tumor cells) was no less than 90 nM and the IC50 (COS Cell) was no less than 7 nM.

Work on `N=C(N)N1CCC(CC(=O)N2CCC(C3c4ccc(Cl)c(Br)c4CCc4cc(Br)cnc43)CC2)CC1` (stereo not drawn) [Compound 30.0] yielded an IC50 [1, 3] of no less than 0.8 nM and an IC50 (COS Cell) of no less than 12 nM.

In the case of `NC(=NO)N1CCC(CC(=O)N2CCN(C3c4ccc(Cl)cc4CCc4cc(Br)cnc43)CC2)CC1` (stereo not drawn) [Compound 12.0, 4-[2-[4-(3-BROMO-8-CHLORO-6,11-DIHYDRO-5H-BENZO[5,6]CYCLOHEPTA[1,2-b]PYRIDIN-11-YL)-1-PIPERAZINYL]-2-OXOETHYL]-N-HYDROXY-1-PIPERIDINECARBOXIMIDATE], the IC50 [1, 3] is reported as no less than 0.8 nM.

Work on `N=C(NCc1cccnc1)N1CCC(CC(=O)N2CCC(C3c4ccc(Cl)c(Br)c4CCc4cc(Br)cnc43)CC2)CC1` (stereo not drawn) [Compound 31.0] yielded an IC50 [1, 3] of no less than 0.8 nM, an IC50 [1, 4] of 16 to 782 nM and an IC50 [2] greater than 7500 nM. It also gave an IC50 (COS Cell) of no less than 12 nM.

With `O=C(CC1CCN(C(=O)c2ccoc2)CC1)N1CCC([C@H]2c3ncc(Br)cc3CCc3cc(Cl)cc(Br)c32)CC1` [Compound 84.0-B] the IC50 (Human tumor cells) was no less than 90 nM and the IC50 (COS Cell) was no less than 7 nM.

`O=C(O)c1cncc(C(=O)N2CCC(CC(=O)N3CCC([C@H]4c5ncc(Br)cc5CCc5cc(Cl)cc(Br)c54)CC3)CC2)c1` [Compound 25.0-B] gave an IC50 (Human tumor cells) of no less than 90 nM and an IC50 (COS Cell) of no less than 7 nM.

With `O=C1C[C@@H](C(=O)N2CCC(CC(=O)N3CCC([C@H]4c5ncc(Br)cc5CCc5cc(Cl)cc(Br)c54)CC3)CC2)NC(=O)N1` [Compound 78.0-B] the IC50 (Human tumor cells) was no less than 90 nM and the IC50 (COS Cell) was no less than 7 nM.

Work on `N#CN1CCC(CC(=O)N2CCC(C3c4ccc(Cl)c(Br)c4CCc4cc(Br)cnc43)CC2)CC1` (stereo not drawn) [Compound 28.0] yielded an IC50 [1, 3] of no less than 0.8 nM, an IC50 [1, 4] of 16 to 782 nM and an IC50 [2] greater than 9600 nM. The IC50 (COS Cell) was no less than 12 nM.

`N=C(NC(=O)NC(N)=O)N1CCC(CC(=O)N2CCN(C3c4ccc(Cl)cc4CCc4cc(Br)cnc43)CC2)CC1` (stereo not drawn) [Compound 17.1, N-[[(AMINOCARBONYL)AMINO]CARBONYL]-4-[2-[4-(3-BROMO-8-CHLORO-6,11-DIHYDRO-5H-BENZO[5,6]CYCLOHEPTA[1,2-b]-PYRIDIN-11-YL)-1-PIPERAZINYL]-2-OXOETHYL]-1-PIPERIDINECARBOXIMIDAMIDE] gave an IC50 [1, 3] of no less than 0.8 nM.

Molecule `CON=C(N)N1CCC(CC(=O)N2CCN(C3c4ccc(Cl)cc4CCc4cc(Br)cnc43)CC2)CC1` (stereo not drawn) [Compound 13.0, 4-[2-[4-(3-BROMO-8-CHLORO-6,11-DIHYDRO-5H-BENZO[5,6]CYCLOHEPTA[1,2-b]PYRIDIN-11-YL)-1-PIPERAZINYL]-2-OXOETHYL]-N-METHOXY-1-PIPERIDINE-CARBOXIMIDATE] has an IC50 [1, 3] of no less than 0.8 nM.

`NC(=O)NC(=O)N=C(Oc1ccccc1)N1CCC(CC(=O)N2CCN(C3c4ccc(Cl)cc4CCc4cc(Br)cnc43)CC2)CC1` (stereo not drawn) [Compound 16.1, PHENYL N-[[(AMINOCARBONYL)AMINO]CARBONYL]-4-[2-[4-(3-BROMO-8-CHLORO-6,11-DIHYDRO-5H-BENZO[5,6]CYCLOHEPTA-[1,2-b]PYRIDIN-11-YL)-1-PIPERAZINYL]-2-OXOETHYL]-1-PIPERIDINECARBOXIMIDATE] gave an IC50 [1, 3] of no less than 0.8 nM.

`CC(=O)N1CCC(CC(=O)N2CCC([C@H]3c4ncc(Br)cc4CCc4cc(Cl)cc(Br)c43)CC2)CC1` [Compound 36.0-B] was tested, and the IC50 (Human tumor cells) was no less than 90 nM and the IC50 (COS Cell) was no less than 7 nM.

With `NC(=O)c1cncc(C(=O)N2CCC(CC(=O)N3CCC([C@H]4c5ncc(Br)cc5CCc5cc(Cl)cc(Br)c54)CC3)CC2)c1` [Compound 29.0-B] the IC50 (Human tumor cells) was no less than 90 nM and the IC50 (COS Cell) was no less than 7 nM.

With `N=C(Oc1ccccc1)N1CCC(CC(=O)N2CCN(C3c4ccc(Cl)cc4CCc4cc(Br)cnc43)CC2)CC1` (stereo not drawn) [Compound 4.0, PHENYL 4-[2-[4-(3-BROMO-8-CHLORO-6,11-DIHYDRO-5H-BENZO[5,6]CYCLOHEPTA[1,2-b]PYRIDIN-11-YL)-1-PIPERAZINYL]-2-OXOETHYL]-1-PIPERIDINECARBOXIMIDATE] the IC50 [1, 3] was no less than 0.8 nM.

For `N#CNC(=N)N1CCC(CC(=O)N2CCN(C3c4ccc(Cl)cc4CCc4cc(Br)cnc43)CC2)CC1` (stereo not drawn) [Compound 3.0, 4-[2-[4-(3-BROMO-8-CHLORO-6,11-DIHYDRO-5H-BENZO[5,6]CYCLOHEPTA[1,2-b]PYRIDIN-11-YL)-1-PIPERAZINYL]-2-OXOETHYL]-N-CYANO-1-PIPERIDINE-CARBOXIMIDAMIDE], the IC50 [1, 3] was no less than 0.8 nM.

`O=C(CC1CCN(C(=O)c2cc[n+]([O-])cc2)CC1)N1CCC([C@H]2c3ncc(Br)cc3CCc3cc(Cl)cc(Br)c32)CC1` [Compound 45.0-B] showed an IC50 (Human tumor cells) of no less than 90 nM and an IC50 (COS Cell) of no less than 7 nM.

Work on `O=C(CC1CCN(C(=O)c2ccc(O)nc2)CC1)N1CCC([C@H]2c3ncc(Br)cc3CCc3cc(Cl)cc(Br)c32)CC1` [Compound 47.0-B] yielded an IC50 (Human tumor cells) of no less than 90 nM and an IC50 (COS Cell) of no less than 7 nM.

`N=C(Oc1ccccc1)N1CCC(CC(=O)N2CCC(C3c4ccc(Cl)c(Br)c4CCc4cc(Br)cnc43)CC2)CC1` (racemic) [Compound 26.0] showed an IC50 [1, 3] of no less than 0.8 nM.

For `N#CN=C(Oc1ccccc1)N1CCC(CC(=O)N2CCN(C3c4ccc(Cl)cc4CCc4cc(Br)cnc43)CC2)CC1` (stereo not drawn) [Compound 2.0, PHENYL 4-[2-[4-(3-BROMO-8-CHLORO-6,11-DIHYDRO-5H-BENZO[5,6]CYCLOHEPTA[1,2-b]PYRIDIN-11-YL)-1-PIPERAZINYL]-2-OXOETHYL]-N-CYANO-1-PIPERIDINE- CARBOXIMIDATE], the IC50 [1, 3] was no less than 0.8 nM.
